According to patent US20250122218A1, “MODULATORS OF CYSTIC FIBROSIS TRANSMEMBRANE CONDUCTANCE REGULATOR” (Vertex Pharmaceuticals Incorporated, priority 2022, published 2025):
pEC50: −log10 of the molar value.

Target: T1, CFTR in F508del/MF-HBE cells (Homo sapiens, UniProt P13569, DEL508-508)
T1 construct: human bronchial epithelial (HBE) cells derived from CF subjects heterozygous for F508del and a minimal function CFTR mutation; endogenous in cells; host or cells: primary human bronchial epithelial cells from CF subjects (F508del/MF-HBE)
T1 sequence (P13569 with tags, fused parts or gaps DEL508-508): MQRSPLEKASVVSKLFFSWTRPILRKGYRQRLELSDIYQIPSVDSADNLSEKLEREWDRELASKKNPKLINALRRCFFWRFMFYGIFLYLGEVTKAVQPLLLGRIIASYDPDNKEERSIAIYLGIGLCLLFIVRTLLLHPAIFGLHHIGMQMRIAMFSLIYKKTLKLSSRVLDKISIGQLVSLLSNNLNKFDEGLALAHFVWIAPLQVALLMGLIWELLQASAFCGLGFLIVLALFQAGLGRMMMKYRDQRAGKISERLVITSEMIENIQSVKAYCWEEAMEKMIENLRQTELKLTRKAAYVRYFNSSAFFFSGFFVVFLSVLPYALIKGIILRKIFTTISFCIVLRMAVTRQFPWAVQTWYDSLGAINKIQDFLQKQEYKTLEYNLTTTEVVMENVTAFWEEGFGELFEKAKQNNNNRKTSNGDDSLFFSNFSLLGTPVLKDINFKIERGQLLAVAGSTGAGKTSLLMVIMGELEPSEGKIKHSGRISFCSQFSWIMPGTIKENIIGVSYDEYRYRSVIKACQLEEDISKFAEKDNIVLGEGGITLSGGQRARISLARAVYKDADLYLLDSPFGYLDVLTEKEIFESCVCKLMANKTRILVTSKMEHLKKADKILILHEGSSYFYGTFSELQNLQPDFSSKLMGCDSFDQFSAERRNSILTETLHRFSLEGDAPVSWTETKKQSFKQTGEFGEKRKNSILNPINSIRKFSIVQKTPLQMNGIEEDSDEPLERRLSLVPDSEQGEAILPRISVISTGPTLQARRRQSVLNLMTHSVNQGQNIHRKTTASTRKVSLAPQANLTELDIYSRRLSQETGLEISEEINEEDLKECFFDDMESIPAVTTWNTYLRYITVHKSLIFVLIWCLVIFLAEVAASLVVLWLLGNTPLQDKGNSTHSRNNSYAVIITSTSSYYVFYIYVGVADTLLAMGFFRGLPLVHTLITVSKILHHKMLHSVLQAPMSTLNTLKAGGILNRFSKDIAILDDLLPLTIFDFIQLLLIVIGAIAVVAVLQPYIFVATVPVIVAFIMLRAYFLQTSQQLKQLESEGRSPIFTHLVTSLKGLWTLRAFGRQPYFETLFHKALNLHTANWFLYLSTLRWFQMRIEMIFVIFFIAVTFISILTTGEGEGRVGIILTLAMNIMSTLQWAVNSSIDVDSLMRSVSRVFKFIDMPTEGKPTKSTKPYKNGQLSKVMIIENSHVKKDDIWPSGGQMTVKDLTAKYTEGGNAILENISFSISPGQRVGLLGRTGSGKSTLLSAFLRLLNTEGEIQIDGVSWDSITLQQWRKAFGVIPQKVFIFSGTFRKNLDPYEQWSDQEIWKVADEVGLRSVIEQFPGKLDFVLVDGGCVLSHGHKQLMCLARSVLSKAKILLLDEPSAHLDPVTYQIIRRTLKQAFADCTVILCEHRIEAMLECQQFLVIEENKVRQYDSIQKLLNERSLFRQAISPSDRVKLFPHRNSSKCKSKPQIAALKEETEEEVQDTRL
Test: Ussing chamber assay of CFTR-mediated short-circuit currents (identification of potentiator compounds)
Format: cell-based
Details: potentiator incubated 18-24 hours at 37° C. in combination with 10 μM corrector, in the presence of 20% human serum, CFTR-mediated ISC
Outline: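 F508del/MF-HBE cultures were preincubated 18-24 h at 37° C with potentiator plus 10 μM of a fixed corrector compound in 20% human serum; compounds were kept present during measurement. ISC was recorded under voltage clamp (0 mV, 37° C, amiloride apical) and taken as the 20 μM forskolin peak minus the current after inhibitor cocktail.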

Compound | pEC50
Nc1cc(C(F)(F)F)c2nc1-c1nnc(o1)[C@@](O)(C(F)(F)F)CCCCCN([C@H]1CC[C@@H](C(F)(F)F)CC1)C2=O [Compound 208, (6R)-17-amino-6-hydroxy-12-[(1s,4s)-4-(trifluoromethyl)cyclohexyl]-6,15-bis(trifluoromethyl)-19-oxa-3,4,12,18-tetraazatricyclo [12.3.1.12,5] nonadeca-1(18),2,4,14,16-pentaen-13-one] | > 6.30
Nc1cc(C(F)(F)F)c2nc1-c1nnc(o1)[C@@](O)(C(F)(F)F)CCCCCN([C@H]1CC[C@H](C(F)(F)F)CC1)C2=O [Compound 209, (6R)-17-amino-6-hydroxy-12-[(1r,4r)-4-(trifluoromethyl)cyclohexyl]-6,15-bis(trifluoromethyl)-19-oxa-3,4,12,18-tetraazatricyclo [12.3.1.12,5] nonadeca-1(18),2,4,14,16-pentaen-13-one] | > 6.30
Nc1cc(C(F)(F)F)c2nc1-c1nnc(o1)[C@@](O)(C(F)(F)F)CCCCCN(C13CCC(CC1)CC3)C2=O [Compound 210, (6R)-17-amino-12-(1-bicyclo[2.2.2]octanyl)-6-hydroxy-6,15-bis(trifluoromethyl)-19-oxa-3,4,12,18-tetrazatricyclo [12.3.1.12,5] nonadeca-1(18),2,4,14,16-pentaen-13-one] | > 6.30
COC12CCC(N3CCCCC[C@](O)(C(F)(F)F)c4nnc(o4)-c4nc(c(C(F)(F)F)cc4N)C3=O)(CC1)C2 [Compound 211, (6R)-17-amino-6-hydroxy-12-(4-methoxynorbornan-1-yl)-6,15-bis(trifluoromethyl)-19-oxa-3,4,12,18-tetrazatricyclo [12.3.1.12,5] nonadeca-1(18),2,4,14,16-pentaen-13-one] | > 6.30
Cc1cccc(CN2CCCCC[C@](O)(C(F)(F)F)C3=NN=C(O3)c3nc(c(C(F)(F)F)cc3N)C2=O)c1 [Compound 212, (6R)-17-amino-6-hydroxy-12-(m-tolylmethyl)-6,15-bis(trifluoromethyl)-19-oxa-3,4,12,18-tetrazatricyclo [12.3.1.12,5] nonadeca-1(18),2,4,14,16-pentaen-13-one] | > 6.30

More lines, now with the values ahead:

pEC50 | Compound
> 6.30 | CC(C)(C)CCN1CCCCC[C@](O)(C(F)(F)F)C2=NN=C(O2)c2nc(c(C(F)(F)F)cc2N)C1=O [Compound 213, (6R)-17-amino-12-(3,3-dimethylbutyl)-6-hydroxy-6,15-bis(trifluoromethyl)-19-oxa-3,4,12,18-tetrazatricyclo [12.3.1.12,5] nonadeca-1(18),2,4,14,16-pentaen-13-one]
> 6.30 | Nc1cc(C(F)(F)F)c2nc1-c1nnc(o1)[C@@](O)(C(F)(F)F)CCCCCN(Cc1ccc(C3(C(F)(F)F)CC3)cn1)C2=O [Compound 214, (6R)-17-amino-6-hydroxy-6,15-bis(trifluoromethyl)-12-[[5-[1-(trifluoromethyl)cyclopropyl]-2-pyridyl]methyl]-19-oxa-3,4,12,18-tetrazatricyclo [12.3.1.12,5] nonadeca-1(18),2,4,14,16-pentaen-13-one]
> 6.30 | Nc1cc(C(F)(F)F)c2nc1-c1nnc(o1)[C@@](O)(C(F)(F)F)CCCCCN(Cc1cccc(Br)c1)C2=O [Compound 216, (6R)-17-amino-12-[(3-bromophenyl)methyl]-6-hydroxy-6,15-bis(trifluoromethyl)-19-oxa-3,4,12,18-tetrazatricyclo [12.3.1.12,5] nonadeca-1(18),2,4,14,16-pentaen-13-one]
> 6.30 | Nc1cc(C(F)(F)F)c2nc1-c1nnc(o1)[C@@](O)(C(F)(F)F)CCCCCN(Cc1ccc(C3CC3)cc1)C2=O [Compound 217, (6R)-17-amino-12-[(4-cyclopropylphenyl)methyl]-6-hydroxy-6,15-bis(trifluoromethyl)-19-oxa-3,4,12,18-tetrazatricyclo [12.3.1.12,5] nonadeca-1(18),2,4,14,16-pentaen-13-one]
